Consider 8 compounds from patent US12421217B2, “Pyrazine derivative or salt thereof, and use of same” (FUJIFILM Corporation, priority 2019, dated 2025).

Assay [1] concerns human myeloid leukemia cell line HL60. In words: Cell growth test (Cell Titer Glo). The conditions noted are these: HL-60, 72 h, HL60 cells, 3 days, read-out: Cell growth inhibitory effect (GI50). Type of assay: cell-based. How it is done:
The cell growth test was carried out using the human myeloid leukemia cell line HL60 (available from ATCC, CRL-240). As a culture medium of HL60 cells, RPMI 1640 (available from FUJIFILM Wako Pure Chemical Corporation, 189-02025) supplemented with 10% fetal bovine serum (available from Thermo Fisher Scientific, Inc., 10437-028), and 1% penicillin-streptomycin (10,000 U/mL, available from Thermo Fisher Scientific, Inc., 15140-122) was used. HL60 cells were seeded on a 384-well plate (available from Corning Inc., 4588) at a cell density of 1×10^3 cells/20 μL/well. After culturing overnight, 5 μL of the test compound having a predetermined concentration was added, and 3 days later, 25 μL of Cell Titer Glo (registered trademark) Luminescent Cell Viability Assay (available from Promega Corporation, G7573) was added, and then the amount of luminescence was measured using an EnVision plate reader (available from PerkinElmer, Inc.). Since the amount of luminescence is proportional to the intracellular concentration of adenosine triphosphate (ATP), the amount of luminescence was used as an indicator of the number of viable cells. The growth inhibitory concentration for each test compound concentration was calculated by the following expression.
The growth inhibition rate at each test compound concentration was determined, and the 50% growth inhibitory concentration [GI50 (nmol/L)] was calculated using XLfit. Growth inhibition rate (%)=(amount of luminescence in test compound-added well)/(amount of luminescence in DMSO-added well)×100
The abbreviations in the table have the following meanings. • A: GI50 value<100 nmol/L • B: 100 nmol/L≤GI50 value<1,000 nmol/L • C: 1,000 nmol/L≤GI50 value

The target in a further assay is T1, recombinant human DHODH (Homo sapiens, UniProt Q02127).
T1 construct: DHODH, 31-395 aa, Human, His tag, E. coli, ATGP1615; His tag; purchased ATGen Co. Ltd. ATGP1615; host or cells: E. coli
T1 sequence (Q02127 31-395): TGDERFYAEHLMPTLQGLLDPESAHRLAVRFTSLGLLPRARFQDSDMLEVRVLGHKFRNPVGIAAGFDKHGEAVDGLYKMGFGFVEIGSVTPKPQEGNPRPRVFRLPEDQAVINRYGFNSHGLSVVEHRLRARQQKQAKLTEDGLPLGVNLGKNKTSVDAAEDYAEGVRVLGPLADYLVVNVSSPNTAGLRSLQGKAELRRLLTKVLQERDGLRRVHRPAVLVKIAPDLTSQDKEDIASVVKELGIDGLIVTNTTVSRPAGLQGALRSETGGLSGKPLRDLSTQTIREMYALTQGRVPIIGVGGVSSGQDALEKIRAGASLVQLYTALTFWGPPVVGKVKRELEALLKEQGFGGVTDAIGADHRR
In words: Enzyme reaction inhibition test (DHODH enzyme assay, DCIP quenching). The conditions noted are these: DCIP absorbance 600 nm, 50 minutes, read-out: Enzyme reaction inhibitory effect (IC50). The format is biochemical. The method, then:
The DHODH enzyme assay was carried out with reference to “Benjamin Bader, Wolfgang Knecht, Markus Fries, and Monika Loffler. Expression, Purification, and Characterization of Histidine-Tagged Rat and Human Flavoenzyme Dihydroorotate Dehydrogenase. Protein Expression and Purification, 1998, 13, 414-422.”
The DHODH activity was evaluated using an enzyme assay system that is coupled with an assay in which a blue coloring agent 2,6-dichlorophenol indophenol (DCIP, available from MP Biomedicals, LLC, MP150118) is quenched. Purified recombinant human DHODH (DHODH, 31-395 aa, Human, His tag, E. coli, ATGP1615) was purchased from ATGen Co. Ltd. The enzyme assay was carried out in a 384-well plate using a buffer solution containing 100 mmol/L Hepes (available from Dojindo Laboratories, 342-01375), 400 mmol/L NaCl (available from FUJIFILM Wako Pure Chemical Corporation, 191-01665), 10% Glycerol (available from FUJIFILM Wako Pure Chemical Corporation, 075-00616), 0.05% Triton X-100 (available from Sigma-Aldrich Co., LLC, T8787-100ML), 0.2 mmol/L Ubiquinone-10 (available from FUJIFILM Wako Pure Chemical Corporation, 216-00761), 0.1 mmol/L DHO (L-dihydroorotic acid, available from Sigma-Aldrich Co., LLC, D7128), 0.5% DMSO (dimethylsulfoxide, available from FUJIFILM Wako Pure Chemical Corporation, 047-29353), 0.175 μg/mL DHODH, and 0.12 mmol/L DCIP and having a pH adjusted to 8.0 by adding 5 mol/L potassium hydroxide (available from FUJIFILM Wako Pure Chemical Corporation, 168-21815). A test compound with a predetermined concentration was added using Biomek NX (available from Beckman Coulter Inc.), and the enzymatic reaction was started by adding the substrate. The enzyme activity was assessed by measuring the decrease in DCIP absorbance (600 nm) for 50 minutes using an EnVision plate-reading spectrophotometer (available from PerkinElmer, Inc.).
The enzyme reaction inhibition rate at each test compound concentration was determined, and the 50% enzyme reaction inhibition concentration [IC50 (nmol/L)] was calculated using XLfit. Enzyme reaction inhibition rate (%)=(amount of luminescence in test compound-added well)/(amount of luminescence in DMSO-added well)×100
The abbreviations in the table have the following meanings. • A: IC50 value<10 nmol/L • B: 10 nmol/L≤IC50 value<100 nmol/L • C: 100 nmol/L≤IC50 value

The subject of assay [2] is human acute myeloid leukemia cell line HL60. In words: In vivo drug efficacy test in cancer-bearing mouse model with subcutaneous transplantation of HL60. Conditions: NOD/scid mice, oral 10 to 30 mg/kg once daily for 10 days. How it is done:
(Drug Efficacy Test in Cancer-Bearing Mouse Model with Subcutaneous Transplantation of HL60)
The human acute myeloid leukemia cell line HL60 (available from JCRB) was suspended in a mixture of RPMI-1640 medium and Matrigel (available from Corning Inc.), and then subcutaneously transplanted into 6-week-old female NOD/scid mice (available from CLEA Japan, Inc.). After confirming that the average tumor volume exceeded 200 mm^3, the test compound was dissolved in a solvent (1 equivalent sodium hydroxide solution) and orally administered to mice at a dose of 10 to 30 mg/kg once daily for 10 days. As a negative control, a solvent-administered group to which a 10 to 12 mmol/L sodium hydroxide solution was administered was provided. The tumor diameter was measured over time and the tumor volume was calculated. The tumor volume was calculated by measuring the major axis and the minor axis of the tumor and using the following expression. Tumor volume (mm^3)=[major axis (mm)×minor axis (mm)×minor axis (mm)]/2
T/C (%) was calculated from the average tumor volume of each group by the following expression, and the drug efficacy was evaluated. T/C (%)=(average tumor volume of drug-administered group)/(average tumor volume of solvent-administered group)×100%

As a reminder, the GI50 is the concentration giving 50% growth inhibition. For orientation: IC50 means the concentration needed to halve the response being measured.

Regarding `O=C(O)c1nc(C2CC2)cnc1Nc1cccc(C2=CCOCC2)c1OCC(F)(F)F` [Example 2, 6-cyclopropyl-3-((3-(3,6-dihydro-2H-pyran-4-yl)-2-(2,2,2-trifluoroethoxy)phenyl)amino)pyrazine-2-carboxylic acid], in assay [1], the GI50 was below 100 nM. For the same compound, the IC50 on recombinant human DHODH is below 10 nM. Also, in assay [2], the “tumor growth inhibition rate (T/C)” value is given as “excellent tumor growth inhibition rate”.

For `O=C(O)c1nc(C2CC2)cnc1Nc1cccc(C2CCOCC2)c1OCC(F)(F)F` [Example 4, 6-cyclopropyl-3-((3-(tetrahydro-2H-pyran-4-yl)-2-(2,2,2-trifluoroethoxy)phenyl)amino)pyrazine-2-carboxylic acid], the GI50 in assay [1] is below 100 nM. For the same compound, the IC50 on recombinant human DHODH was below 10 nM. The “tumor growth inhibition rate (T/C)” value in assay [2] is recorded as “excellent tumor growth inhibition rate”.

With `C[C@H](Oc1c(Nc2ncc(C3CC3)nc2C(=O)O)cccc1C1=CCOCC1)C(F)(F)F` [Example 8, (S)-6-cyclopropyl-3-((3-(3,6-dihydro-2H-pyran-4-yl)-2-((1,1,1-trifluoropropan-2-yl)oxy)phenyl)amino)pyrazine-2-carboxylic acid], in assay [1], the GI50 is below 100 nM. For the same compound, the IC50 on recombinant human DHODH was below 10 nM. In addition, the “tumor growth inhibition rate (T/C)” value in assay [2] is given as “excellent tumor growth inhibition rate”.

In the case of `C[C@H](Oc1c(Nc2ncc(C3CC3)nc2C(=O)O)cccc1C1CCOCC1)C(F)(F)F` [Example 10, (S)-6-cyclopropyl-3-((3-(tetrahydro-2H-pyran-4-yl)-2-((1,1,1-trifluoropropan-2-yl)oxy)phenyl)amino)pyrazine-2-carboxylic acid], in assay [1], the GI50 was below 100 nM. Further, the IC50 on recombinant human DHODH was below 10 nM. Besides, the “tumor growth inhibition rate (T/C)” value in assay [2] is reported as “excellent tumor growth inhibition rate”.

With `CCCc1c(Nc2ncc(C3CC3)nc2C(=O)O)cccc1C1CCOCC1` [Example 13, 6-cyclopropyl-3-((2-propyl-3-(tetrahydro-2H-pyran-4-yl)phenyl)amino)pyrazine-2-carboxylic acid], the GI50 in assay [1] was below 100 nM. In addition, the IC50 at recombinant human DHODH is 10 to 100 nM. In assay [2], the “tumor growth inhibition rate (T/C)” value is listed as “excellent tumor growth inhibition rate”.

For the compound `Cc1cnc(Nc2cccc(C3=CCOCC3)c2OCC(F)(F)F)c(C(=O)O)n1` [Example 19-33], in assay [1], the GI50 was at least 1000 nM. On recombinant human DHODH, the IC50 fell in the range of 10 to 100 nM.

Regarding `CCOC(=O)c1nc(C2CC2)cnc1Nc1cccc(C2=CCOCC2)c1OCC(F)(F)F` [Example 20, ethyl 6-cyclopropyl-3-((3-(3,6-dihydro-2H-pyran-4-yl)-2-(2,2,2-trifluoroethoxy)phenyl)amino)pyrazine-2-carboxylate], in assay [1], the GI50 lay in the range of 100 to 1000 nM. The IC50 at recombinant human DHODH is at least 100 nM.

With `CC(C)OC(=O)c1nc(C2CC2)cnc1Nc1cccc(C2=CCOCC2)c1OCC(F)(F)F` [Example 21, isopropyl 6-cyclopropyl-3-((3-(3,6-dihydro-2H-pyran-4-yl)-2-(2,2,2-trifluoroethoxy)phenyl)amino)pyrazine-2-carboxylate], the GI50 in assay [1] is at least 1000 nM. The half-inhibitory concentration (IC50) on recombinant human DHODH was at least 100 nM.
